Measurements reported in paper PMC3919717 (PLoS ONE, 2014).

Legend:
Settings in all cases: 50 nM enzyme; BAEE 0.04-0.2 mg/ml; 37°C; native glycosylated enzyme
RV-FVPδ = test system: RV-FVPδ
RV-FVPγ = test system: RV-FVPγ
RV-FVPα = type: biochemical, Daboia russelii
RV-FVPβ = test system: RV-FVPβ

## CCOC(=O)[C@H](CCCNC(=N)N)NC(=O)c1ccccc1 [BAEE]
RV-FVPδ
  Km: 0.159 mg/mL
RV-FVPγ
  Km: 0.159 mg/mL
RV-FVPα
  Km: 0.143 mg/mL
RV-FVPβ
  Km: 0.156 mg/mL
